Source: US4145554A, “3-Nitropyrazole derivatives” (Eli Lilly and Company, priority 1977, dated 1979)
In brackets after ≈: the same amount, converted by molar mass. Several values for one entry are separate records, joined by “and”; a condition that tells them apart may be missing. Equal values may be shown once.

How the values were obtained:
Pasteurella hemolytica = experiment: in vitro tube dilution test (MIC); format: cell-based
[1] = system: Salmonella typhimurium 1503; experiment: in vitro tube dilution test (MIC); format: cell-based; details: Salmonella enterica, Salmonella typhimurium 1503 (poult intestine)
Serratia sp. = experiment: agar dilution technique (MIC); format: cell-based
P. multocida [2] = experiment: Mice infected with P. multocida, compound injected subcutaneously; format: in vivo; details: 2.5 mg./kg. subcutaneous
Description: A second test was conducted in much the same way, except that the 3-nitropyrazole was injected to the treated mice subcutaneously at the same time they were infected with the P. multocida culture.

Streptococcus sp. = experiment: in vitro tube dilution test (MIC); format: cell-based
P. multocida [3] = experiment: Pasteurellosis in chickens; format: in vivo; details: 100 gm. per ton of feed
Staphylococcus sp. = experiment: in vitro tube dilution test (MIC); format: cell-based
Citrobacter freundii = experiment: agar dilution technique (MIC); format: cell-based
Salmonella typhimurium = experiment: Salmonellosis in chickens, single injection to day-old chicks; format: in vivo; details: Salmonella enterica, TYPHIMURIUM, 168 h; single injection of 60 mg./kg.; seven days; read-out: Survival (converted)
Outline: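 Five day-old chicks per group received one injection of compound at 60 mg./kg., then were challenged next day by subcutaneous S. typhimurium at a dose lethal to most or all untreated controls. Read-out is survivor count, pooled over repeat groups, with untreated challenged controls run in each batch.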

Vibrio coli = experiment: in vitro tube dilution test (MIC); format: cell-based; details: Campylobacter coli
Diplococcus pneumoniae = experiment: agar dilution technique (MIC); format: cell-based; details: Streptococcus pneumoniae
Streptococcus pyogenes = experiment: agar dilution technique (MIC); format: cell-based
E. coli = experiment: Tests in mice, E. coli infection; format: in vivo
Description: Groups of laboratory mice were inoculatd with E. coli or with Streptococcus pyogenes. The 3-nitropyrazoles were administered in two different modes to the infected mice. In one group of tests, the compound was administered in two subcutaneous doses of 83 mg./kg. each, given 1 and 5 hours after the mice were inoculated with the organism. The mice were observed, and the results reported below as the number of days the treated mice survived the challenge.
In the other group of tests, the dose of each compound which allowed 50 percent of the treated mice to survive the challenge was determined. Again, the compound was administered in subcutane divided doses, 1 and 5 hours post-inoculation.

Mycoplasma gallisepticum = experiment: in vitro tube dilution test (MIC); format: cell-based; details: Mycoplasmoides gallisepticum; Mycoplasma galliseptioum, tube dilution; read-out: MIC
Outline: (§1)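 Standard tube dilution test; MIC reported as micrograms of compound per milliliter.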

Escherichia coli = experiment: in vitro tube dilution test (MIC); format: cell-based; details: tube dilution, read-out: MIC
Outline: as §1

Mycoplasma synoviae = experiment: in vitro tube dilution test (MIC); format: cell-based; details: Mycoplasmopsis synoviae, Mycoplasma synoviae
Outline: as §1

M. gallisepticum = experiment: Mycoplasma gallisepticum in chickens; format: in vivo
Description: A group of broiler type chickens, weighing about 1265 gm., were obtained from a homogeneous source flock. The birds were allocated into 12-bird treatment groups of equal weight. Four treatment groups were used in each of the treatments, including the untreated infected controls; two groups were held as normal controls.
The birds, other than the normal controls, were challenged by administering two 0.2 ml. injections of a freshly thawed M. gallisepticum culture to each bird, one injection in the wing vein and one in the air sac. Immediately after the challenge, four of the treatment groups were treated by injecting 25 mg./kg., intramuscularly, of 1-(2-hydroxyethyl)-3-nitro-4-pyrazolecarboxamide to each chicken. The other four treated groups received the same compound at 2 gm./gal. (about 50 mg./kg./day) in their drinking water for a period of 41/2 days after the challenge was administered.
The birds were held and observed for about 3 weeks. Mortality in the experiment was negligible. At the end of the observation period, the birds were sacrificed and examined for M. gallisepticum lesions of the air sac. A sample of blood from each bird was tested to determine the presence of M. gallisepticum antibodies. […] The final average weights and the air sac lesion counts are shown below.

Mycoplasma hyosynoviae = experiment: in vitro tube dilution test (MIC); format: cell-based
Salmonella pullorum 9-25 = experiment: in vitro tube dilution test (MIC); format: cell-based; details: Salmonella enterica; Salmonella pullorum 9-25, tube dilution
[4] = system: Streptococcus sp. (group D); experiment: agar dilution technique (MIC); format: cell-based

NC(=O)c1cn(CCO)nc1[N+](=O)[O-] [Compound 32, 1-(2-hydroxyethyl)-3-nitro-4-pyrazolecarboxamide]
MIC (Pasteurella hemolytica): < 1.56 µg/mL | MIC [1]: < 1.56 µg/mL | MIC (Serratia sp.): 32 µg/mL (≈ 160 µM) | Survival (P. multocida [2]): 8/10 | MIC (Streptococcus sp.): 25 µg/mL (≈ 125 µM) | Mortality (P. multocida [3]): about 12% | presence of isolable P. multocida in treated birds (P. multocida [3]): about half of the treated birds | Culture Isolation (P. multocida [3]; individual 8-bird group): 6/8 and 3/8 | Mortality Rate (P. multocida [3]; individual 8-bird group): 2/8 and 0/8 | Culture Isolation, Total (P. multocida [3]; total of two groups): 9/16 | Mortality Rate, Total (P. multocida [3]; total of two groups): 2/16 | MIC (Staphylococcus sp.): 3.12 µg/mL (≈ 15.6 µM) | MIC (Citrobacter freundii): 8 µg/mL (≈ 40 µM) | responders at 60 mg/kg (Salmonella typhimurium): 93.3% | MIC (Vibrio coli): 6.25 µg/mL (≈ 31.2 µM) | MIC (Diplococcus pneumoniae): 2 µg/mL (≈ 9.99 µM) | MIC (Streptococcus pyogenes): 32 µg/mL (≈ 160 µM) | ED50 (E. coli; Escherichia coli, sc, subcutaneous, 1 and 5 hours post-inoculation): 19.6 mg/kg | Days Survived (E. coli; two subcutaneous doses of 83 mg./kg., 1 and 5 hours): 7.0 days | MIC (Mycoplasma gallisepticum): 0.78 µg/mL (≈ 3.9 µM) | MIC (Escherichia coli): 3.12 µg/mL (≈ 15.6 µM) | MIC (Mycoplasma synoviae): 50 µg/mL (≈ 250 µM) | Air Sac Lesions (M. gallisepticum; 25 mg./kg. (injected)): 41/48 | Avg. Wt. (M. gallisepticum; 25 mg./kg. (injected)): 2093 gm. | Air Sac Lesions (M. gallisepticum; 2.0 gm./gal. drinking water): 24/47 | Avg. Wt. (M. gallisepticum; 2.0 gm./gal. drinking water): 2188 gm. | increase of birds' weight (M. gallisepticum; in one case (average, each)): more than 160 gm. | increase of birds' weight (M. gallisepticum; in the other treatment (average, each)): ~260 gm. | MIC (Mycoplasma hyosynoviae): 50 µg/mL (≈ 250 µM) | MIC (Salmonella pullorum 9-25): < 1.56 µg/mL | MIC [4]: 32 µg/mL (≈ 160 µM)
